Experimental data taken from patent US11174253B2, “Compound and pharmaceutical composition containing the same” (ALPHALA CO., LTD., priority 2017, dated 2021).

test system: hepatocellular carcinoma cell line Hep3B; experiment: Growth inhibition of Hep3B cells, 48 hr treatment, Hoechst 33342 nucleus count (GE InCell 2200); format: cell-based; conditions: Homo sapiens, Table 1, ratio of number of tumor cells treated with 10 μM compound to non-treated cells
Description: The potency of selected compounds was defined by the growth inhibition ability to the hepatocellular carcinoma cell line Hep3B. The Hep3B cells were treated with selected compounds for 48 hr under 37° C., 5% CO2, and 95% relative humidity.
The number of treated cells was determined by GE InCell 2200 system, and treated cells were stained with Hoechst 33342 which can reveal the remained nucleus in culture plate. The proportion of survival cells then were calculated with the ratio of treated/non-treated cells. The growth inhibition/cytotoxic effect of selected compounds were evaluated by the following protocol of NCI-60 screening platform. The human tumor cell lines are plating on a 96 well plate in a fixed density 24 hr prior compound treatment. Compounds with multiple concentrations are then added into each well for further 48 hr incubation. Cell viability is assessed by MTS method and the potency of compound is represented by GI50 and LC50 calculated by MTS result.
Herein, the “Ratio in 10 μM (%)” in the following Tables 1-6 refers to the ratio of the number of tumor cells treated with 10 μM of selected compounds to the number of non-treated tumer cells.

Going from `Nc1nc2ccc(CC(=O)Nc3nnc(-c4ccccc4OC(F)(F)F)s3)cc2s1` [Compound 1-11, 2-(2-aminobenzo[d]thiazol-6-yl)-N-(5-(2-(trifluoromethoxy)phenyl)-1,3,4-thiadiazol-2-yl)acetamide] to `Nc1nc2ccc(CC(=O)Nc3nnc(-c4ccc(I)cc4)s3)cc2s1` [Compound 1-12, 2-(2-aminobenzo[d]thiazol-6-yl)-N-(5-(4-iodophenyl)-1,3,4-thiadiazol-2-yl)acetamide], the viability at 10 µM falls from 68% to 67%.

Compared with `CCOc1ccc(-c2nnc(NC(=O)Cc3ccc4nc(N)sc4c3)s2)nc1` [Compound 1-30, 2-(2-aminobenzo[d]thiazol-6-yl)-N-(5-(5-ethoxypyridin-2-yl)-1,3,4-thiadiazol-2-yl)acetamide], `CCOc1cc(OCC)c(-c2nnc(NC(=O)Cc3ccc4nc(N)sc4c3)s2)c(OCC)c1` [Compound 1-24, 2-(2-aminobenzo[d]thiazol-6-yl)-N-(5-(2,4,6-triethoxyphenyl)-1,3,4-thiadiazol-2-yl)acetamide] is higher in viability at 10 µM: 37% for the first, 88% for the second.

same assay, conditions: Homo sapiens, Table 2, ratio of number of tumor cells treated with 10 μM compound to non-treated cells

Compound `Nc1nc2ccc(CC(=O)Nc3nnc(-c4ccccc4OC(F)(F)F)o3)cc2s1` [Compound 2-4, 2-(2-aminobenzo[d]thiazol-6-yl)-N-(5-(2-(trifluoromethoxy)phenyl)-1,3,4-oxadiazol-2-yl)acetamide] has a viability at 10 µM of 88%.

same assay, conditions: Homo sapiens, Table 3, ratio of number of tumor cells treated with 10 μM compound to non-treated cells

First: CCOc1ccc(-c2cnc(NC(=O)Cc3ccc4nc(N)sc4c3)s2)cc1 [Compound 3-11, 2-(2-aminobenzo[d]thiazol-6-yl)-N-(5-(4-ethoxyphenyl)thiazol-2-yl)acetamide]
Second: CCOc1ccc(-c2nc(NC(=O)Cc3ccc4nc(N)sc4c3)sc2Oc2ccccc2)cc1 [Compound 3-13, 2-(2-aminobenzo[d]thiazol-6-yl)-N-(4-(4-ethoxyphenyl)-5-phenoxythiazol-2-yl)acetamide]
The viability at 10 µM of the first is higher: 60% for the first, 58% for the second.

Compound `Cc1ccc(-c2nc(NC(=O)Cc3ccc4nc(N)sc4c3)sc2-c2cc(C(F)(F)F)cc(C(F)(F)F)c2)cc1` [Compound 3-7, 2-(2-aminobenzo[d]thiazol-6-yl)-N-(5-(3,5-bis(trifluoromethyl)phenyl)-4-(p-tolyl)thiazol-2-yl)acetamide] has a viability at 10 µM of 78%.

same assay, conditions: Homo sapiens, Table 4, ratio of number of tumor cells treated with 10 μM compound to non-treated cells

`CCOc1ccc(-c2cnc(NC(=O)Cc3ccc4nc(N)sc4c3)[nH]2)c(OCCOC)c1` [Compound 4-3, 2-(2-aminobenzo[d]thiazol-6-yl)-N-(5-(4-ethoxy-2-(2-methoxyethoxy)phenyl)-1H-imidazol-2-yl)acetamide] showed a viability at 10 µM of 40%.

same assay, conditions: Homo sapiens, Table 5, ratio of number of tumor cells treated with 10 μM compound to non-treated cells

First: CCCCc1ccc(Oc2sc(NC(=O)c3ccc([N+](=O)[O-])s3)nc2-c2ccc(F)cc2)cc1 [Compound 5-65, N-(5-(4-butylphenoxy)-4-(4-fluorophenyl)thiazol-2-yl)-5-nitrothiophene-2-carboxamide]
Second: CCc1ccc(-c2nc(NC(=O)c3ccc([N+](=O)[O-])s3)sc2Oc2ccc(C(C)(C)C)cc2)cc1 [Compound 5-102, N-(5-(4-(tert-butyl)phenoxy)-4-(4-ethylphenyl)thiazol-2-yl)-5-nitrothiophene-2-carboxamide]
The viability at 10 µM of the first is higher: 43% for the first, 40% for the second.

First: CN(C)CC#Cc1ccc(-c2nc(NC(=O)c3ccc([N+](=O)[O-])s3)sc2Oc2ccccc2)s1 [Compound 5-46, N-(4-(5-(3-(dimethylamino)prop-1-yn-1-yl)thiophen-2-yl)-5-phenoxythiazol-2-yl)-5-nitrothiophene-2-carboxamide]
Second: CCOc1ccc(-c2nc(NC(=O)c3ccc([N+](=O)[O-])s3)sc2Oc2ccccc2)c(OCC)c1 [Compound 5-12, N-(4-(2,4-diethoxyphenyl)-5-phenoxythiazol-2-yl)-5-nitrothiophene-2-carboxamide]
The viability at 10 µM of the first is higher: 53% for the first, 46% for the second.

First: O=C(Nc1nc(-c2cccc([N+](=O)[O-])c2)c(Oc2ccccc2)s1)c1ccc([N+](=O)[O-])s1 [Compound 5-3, 5-nitro-N-(4-(3-nitrophenyl)-5-phenoxythiazol-2-yl)thiophene-2-carboxamide]
Second: NCCCCCOc1ccc(-c2nc(NC(=O)c3ccc([N+](=O)[O-])s3)sc2Oc2ccccc2)cc1 [Compound 5-92, N-(4-(4-((5-aminopentyl)oxy)phenyl)-5-phenoxythiazol-2-yl)-5-nitrothiophene-2-carboxamide]
The viability at 10 µM of the first is higher: 82% for the first, 46% for the second.

Going from `CCc1ccc(-c2nc(NC(=O)c3ccc([N+](=O)[O-])s3)sc2Oc2ccc(C(C)(C)CC)cc2)cc1` [Compound 5-103, N-(4-(4-ethylphenyl)-5-(4-(tert-pentyl)phenoxy)thiazol-2-yl)-5-nitrothiophene-2-carboxamide] to `CC(C)(C)c1ccc(Oc2sc(NC(=O)c3ccc([N+](=O)[O-])s3)nc2-c2ccc(C(C)(C)C)cc2)cc1` [Compound 5-96, N-(5-(4-(tert-butyl)phenoxy)-4-(4-(tert-butyl)phenyl)thiazol-2-yl)-5-nitrothiophene-2-carboxamide], the viability at 10 µM rises from 33% to 47%.

First: O=C(Nc1nc(-c2ccc(C(F)(F)F)cc2)c(Oc2ccccc2F)s1)c1ccc([N+](=O)[O-])s1 [Compound 5-83, N-(5-(2-fluorophenoxy)-4-(4-(trifluoromethyl)phenyl)thiazol-2-yl)-5-nitrothiophene-2-carboxamide]
Second: CCCOc1ccc(-c2nc(NC(=O)c3ccc([N+](=O)[O-])s3)sc2Oc2ccccc2F)cc1 [Compound 5-58, N-(5-(2-fluorophenoxy)-4-(4-propoxyphenyl)thiazol-2-yl)-5-nitrothiophene-2-carboxamide]
The viability at 10 µM of the first is lower: 36% for the first, 43% for the second.

Going from `CCOc1ccc(-c2nc(NC(=O)c3ccc([N+](=O)[O-])s3)sc2Oc2ccc(C(F)(F)F)cc2)cc1` [Compound 5-25, N-(4-(4-ethoxyphenyl)-5-(4-(trifluoromethyl)phenoxy)thiazol-2-yl)-5-nitrothiophene-2-carboxamide] to `CCCCOc1ccc(-c2nc(NC(=O)c3ccc([N+](=O)[O-])s3)sc2Oc2ccc(C#N)cc2)cc1` [Compound 5-91, N-(4-(4-butoxyphenyl)-5-(4-cyanophenoxy)thiazol-2-yl)-5-nitrothiophene-2-carboxamide], the viability at 10 µM rises from 32% to 46%.

`CCCOc1ccc(-c2nc(NC(=O)c3ccc([N+](=O)[O-])o3)sc2Oc2ccc(F)cc2)cc1` [Compound 5-49, N-(5-(4-fluorophenoxy)-4-(4-propoxyphenyl)thiazol-2-yl)-5-nitrofuran-2-carboxamide] and `CCCOc1ccc(-c2nc(NC(=O)c3ccc([N+](=O)[O-])s3)sc2Oc2cccc3cccnc23)cc1` [Compound 5-52, 5-nitro-N-(4-(4-propoxyphenyl)-5-(quinolin-8-yloxy)thiazol-2-yl)thiophene-2-carboxamide] are the same in viability at 10 µM: 41% for the first, 41% for the second.

same assay, conditions: Homo sapiens, Table 6, ratio of number of tumor cells treated with 10 μM compound to non-treated cells

Going from `COc1ccc(-c2sc(NC(=O)c3ccc([N+](=O)[O-])s3)nc2-c2ccc(C)cc2)cc1OC` [Compound 6-4, N-(5-(3,4-dimethoxyphenyl)-4-(p-tolyl)thiazol-2-yl)-5-nitrothiophene-2-carboxamide] to `Cc1ccc(-c2nc(NC(=O)c3ccc([N+](=O)[O-])s3)sc2-c2cccc([N+](=O)[O-])c2)cc1` [Compound 6-3, 5-nitro-N-(5-(3-nitrophenyl)-4-(p-tolyl)thiazol-2-yl)thiophene-2-carboxamide], the viability at 10 µM rises from 64% to 84%.

Going from `CCOc1ccc(-c2nc(NC(=O)c3ccc([N+](=O)[O-])s3)sc2Cc2ccc(F)cc2)cc1` [Compound 6-35, N-(4-(4-ethoxyphenyl)-5-(4-fluorobenzyl)thiazol-2-yl)-5-nitrothiophene-2-carboxamide] to `CCOc1ccc(-c2nc(NC(=O)c3ccc([N+](=O)[O-])s3)sc2-c2ccc(F)cc2)cc1` [Compound 6-15, N-(4-(4-ethoxyphenyl)-5-(4-fluorophenyl)thiazol-2-yl)-5-nitrothiophene-2-carboxamide], the viability at 10 µM rises from 47% to 64%.

Going from `CC(C)(C)c1ccc(-c2nc(NC(=O)c3ccc([N+](=O)[O-])s3)sc2-c2cccc(Br)c2)cc1` [Compound 6-58, N-(5-(3-bromophenyl)-4-(4-(tert-butyl)phenyl)thiazol-2-yl)-5-nitrothiophene-2-carboxamide] to `CC(C)(C)c1ccc(-c2nc(NC(=O)c3ccc([N+](=O)[O-])s3)sc2-c2c(F)cc(F)cc2F)cc1` [Compound 6-52, N-(4-(4-(tert-butyl)phenyl)-5-(2,4,6-trifluorophenyl)thiazol-2-yl)-5-nitrothiophene-2-carboxamide], the viability at 10 µM rises from 32% to 37%.

Compared with `CCCOc1ccc(-c2nc(NC(=O)c3ccc([N+](=O)[O-])s3)sc2N2CCN(C)CC2)cc1` [Compound 6-22, N-(5-(4-methylpiperazin-1-yl)-4-(4-propoxyphenyl)thiazol-2-yl)-5-nitrothiophene-2-carboxamide], `CC(C)(C)c1ccc(-c2nc(NC(=O)c3ccc([N+](=O)[O-])s3)sc2C(=O)N2CCOCC2)cc1` [Compound 6-49, N-(4-(4-(tert-butyl)phenyl)-5-(morpholine-4-carbonyl)thiazol-2-yl)-5-nitrothiophene-2-carboxamide] is higher in viability at 10 µM: 29% for the first, 57% for the second.

In the case of `Cc1ccc(-c2nc(NC(=O)c3ccc([N+](=O)[O-])o3)sc2-c2ccc(Br)cc2)cc1` [Compound 6-32, N-(5-(4-bromophenyl)-4-(p-tolyl)thiazol-2-yl)-5-nitrofuran-2-carboxamide], the viability at 10 µM is reported as 27%.
